In the oligonucleotide strings, read from the 5' end, every base follows the letter of its sugar. An asterisk marks phosphorothioate; unmarked linkages are phosphodiester. Other units and linkages are bracketed, terminal groups are in braces. A string of capitals states the bases alone. [invAb] = inverted abasic unit; d = 2'-deoxy (DNA); m = 2'-O-methyl; r = 2'-OH (RNA)
Experiments:
advanced HCC = settings: cited from earlier work
[1] = tested on: Nexavar resistant BNL tumour; assay: Sorafenib-resistant BNL subcutaneous tumour model; assay type: in vivo, mouse; settings: after 3 weeks; MTL-CEBPA 4.2 mg/kg IV d1, d3, d5; anti-PD1 250 ug IP d1, d3, d5; Sorafenib 30 mg/kg PO daily
Procedure: Cell Culture: The mouse hepatocellular carcinoma cell line BNL was maintained in Dulbecco's modified Eagle's medium (DMEM, Gibco by Invitrogen) with […] G418 (Merck, Germany), 1% antibiotic antimycotic (Gibco by Invitrogen) and 10% fetal bovine serum (Gibco by Invitrogen) and cultured at 37° C. in a humidified atmosphere.
Tumour Inoculation and Experimental design: Each BALB/c mice were injected subcutaneously (s.c.) on the flank with 3×10^5 BNL-Luc cells in 0.05 ml of PBS. After inoculation for 3 weeks, Nexavar® (Sorafenib) was orally administered every day for two weeks (30 mg/kg/day).
The selected animals were randomized into the 7 treatment groups (Table 18).
60 mice were injected with 3×10^5 of BNL-Luc cells in […] mixture of PBS. After 3 weeks, the mice were dosed with 30 mg/kg of Sorafenib p.o. every day for 2 weeks. […] The 7 groups included PBS as Control group [PBS]; MTL-CEBPA [C], ([…], I.V., d1, d3, d5); anti-PD1 antibody [P] (250 ug, I.P., d1, d3, d5); Nexavar® (Sorafenib) [N] (30 mg/kg, P.O. daily); MTL-CEBPA+anti-PD1 [C+P]; MTL-CEBPA+Nexavar® (Sorafenib) [C+N] and MTL-CEBPA+anti-PD1+Nexavar® (Sorafenib) [C+P+N].

HCC rat DEN model = assay: DEN rat HCC model, tumour volume; assay type: in vivo; settings: DEN rats; treated 3x/week for 2 weeks (MTL-CEBPA i.v.; sorafenib P.O. 10 mg/kg); sacrifice day 15; PBS 644.7
Procedure: (§1) Male Wistar rats (150-180 g) at 7 weeks of age were obtained from the Animal Center of National Taiwan University. The rats were housed in standard conditions, and all the experiments were conducted in accordance with the “Guide for the Care and Use of Laboratory Animals” prepared by the Institutional Animal Care and Use Committee of National Taiwan University. The rats were given DEN solution daily (Sigma, St Louis, Mo.) as the sole source of drinking water for 6 weeks, followed by 3 weeks of regular water. The DEN solution feeding started with 100 ppm in the first week. The average bodyweight (BW) of the animals was measured once a week per group of five rats, and the concentration of DEN in their drinking water was adjusted in proportion to the BW each week relative to that of the first week. […]
On 15th day after treatment, the animals were sacrificed and tumour size and tumour/liver weight were measured. The body, liver, lung, and spleen were weighed, and the aspects of all organs were recorded. After the animals were sacrificed, all liver lobes were promptly removed and weighed, and the diameters of all of the macroscopically visible nodules on the liver surface and in the 5-mm sliced sections were measured. Tumour burden was determined in terms of two criteria: the ratio of liver weight/BW, and the total volume of all the tumour nodules with diameter >3 mm. […]

alpha-fetoprotein (AFP) = assay: DEN rat HCC model, serum alpha-fetoprotein; assay type: in vivo; settings: DEN rats, 2 weeks dosing, PBS 27
Procedure: as §1
The serum levels of ALT, AST and total bilirubin were measured with VITROS 5.1 FS Chemistry Systems (Ortho-Clinical Diagnostics, Inc.). The serum level of rat alpha-fetoprotein was evaluated with anti-Rat AFP ELISA Kit (USCN life company/China), following the instructions of the manufacturer.
Serum levels of alpha-fetoprotein (AFP) were measured before treatment and compared to measurement after treatment and represented as ‘AFP change’ (mg/dl). Serum AFP change was measured in each group. […]

HCC [2] = settings: single agent, published Phase III; cited from earlier work
CEBPA-mRNA = assay: qRT-PCR of CEBPA mRNA, CEBPA-51 with FGFR4 antibody; assay type: cell-based; settings: Hep3B; oligo 10 nM, anti-human FGFR4 antibody 30 ug/ml where applicable; 72 hours post-seeding; Mock, no antibody = 1.00
Procedure: RNA was isolated from cultured cells using the RNeasy Mini Kit (QIAGEN). RNA was quantitated using a Qiaxpert (Qiagen), and reverse transcribed using the Quantitect Reverse Transcription Kit (QIAGEN). Relative expression levels were determined by qPCR using Quantifast SYBR Green Master Mix (QIAGEN) on a Quantstudio 5 (Qiagen). The following Quantitect Primer Assays (QIAGEN) were used: CEBPA_1_SG, FGFR4_1_SG and GAPDH_1_SG. Relative expression was determined the DDCt method normalized to GAPDH expression.
(§2) In another study, Hep3B cells were seeded at 1.0×10^5 cells/well in a 24 well plate in the presence of 30 ug/ml anti-human FGFR4 therapeutic antibody (XPA.48.056; Creative Biolabs) as applicable. Cells were transfected with either 10 nM CEBPA-51 saRNA, 10 nM Control oligo (NC) or transfection agent alone (Mock) at seeding and this was repeated 24 hours post- seeding and culture medium changed at 48 hours. FGFR antibody treatment was maintained throughout the experiment. Cells were harvested for RNA collection 72 hours post-seeding qRT-PCR analysis.

Hep3B cells [3] = assay: WST1 growth assay, CEBPA-51 with FGFR4 antibody; assay type: cell-based; settings: oligo 10 nM, FGFR4 antibody where applicable, Mock, no antibody = 1.00
Procedure: (§3) HepB3 cells were seeded at 1×10^4 cells/well in a 96 well plate, reverse transfected with oligo at seeding and forward transfected 24 hours later. WST cell viability assay was performed as according to the manufactures' instructions (with 24 hr WST incubation). The WST alone signal has been subtracted from the cell-WST signal.
as §2
Treatment of Hep3B cells with FGFR4 antibody reduced cell viability. Combination treatment of both FGFR4 antibody and CEPBA-51 further reduced cell viability as monitored by WST1 growth assay (Table 9A, 96 hours; Table 9B, 120 hours).

Hep3B cells [4] = assay: WST-1 growth assay, siFGFR4 / CEBPA-51; assay type: cell-based; settings: 20 nM, Mock = 1.00
Procedure: HepB3 cells were grown in DMEM supplemented with 10% fetal bovine serum (FBS), 2 mM L-glutamine, and penicillin/streptomycin in a 5% CO2 incubator. Transfections were performed using 2 μL of Lipofectamine 2000 (Life Technologies) per well in 24 well plate.
as §3

HCC [5] = settings: CHECKMATE-040 subgroup, cited from earlier work

What does the source list for `CNC(=O)c1cc(Oc2ccc(NC(=O)Nc3ccc(Cl)c(C(F)(F)F)c3)cc2)ccn1` [Sorafenib]?
decrease in the risk of death (advanced HCC; patients with advanced HCC): 31%; median survival (advanced HCC; patients with advanced disease, placebo 7.9 months): 10.7 months; reduction in tumour volume [1]: no effect; reduction in tumour weight [1]: no effect; Tumor volume, Mean (HCC rat DEN model): 299.5 mm^3; AFP change (pre-treatment vs post-treatment), Mean (alpha-fetoprotein (AFP)): -36.83 mg/dL; complete responses, share of patients (HCC [2]): 0%; partial responses, share of patients (HCC [2]): 2%

For `COc1cc2nccc(Oc3ccc(NC(=O)NC4CC4)c(Cl)c3)c2cc1C(N)=O` [lenvatinib], which “partial responses, share of patients” value (HCC [2]) is on record?
The value was 24%.

Which results are given for “CEBPA-51: saRNA duplex that upregulates C/EBPa; antisense SEQ ID No. 1, sense SEQ ID No. 2 (sense GCGGUCAUUGUCACUGGUCUU; antisense GACCAGUGACAAUGACCGCUU; sense: sugars from the 5' end mmrmrrrrrmrrrmrrrrrmm, [invAb] at 5' end, backbone not given here; antisense: sugars from the 5' end r19 m2, backbone not given here; further chemistry not fully specified)”?
CEBPA-mRNA relative expression (CEBPA-mRNA): 1.31; Normalized cell viability (Hep3B cells [3]; 96 hours after treatment): 0.32; Normalized cell viability (Hep3B cells [3]; 120 hours after treatment): 0.25

For “NC: Negative control oligonucleotide siFLUC, SEQ ID NO: 6 and 7 (chain 1 rCmUmUrAmCrGmCmUrGrArGmUrAmCmUmUmCrGrAdT*dT; chain 2 rUrCrGrArArGmUrArCrUmCrArGrCrGmUrArArGdT*dT)”, which CEBPA-mRNA relative expression (CEBPA-mRNA) is on record?
Its CEBPA-mRNA relative expression is 0.89.

What about the Normalized cell viability (Hep3B cells [4]; 96 hours after treatment) of the same compound?
The Normalized cell viability was 0.62.

And the Normalized cell viability (Hep3B cells [4]; 120 hours after treatment)?
Its Normalized cell viability is 0.70.

And the Normalized cell viability (Hep3B cells [3]; 96 hours after treatment)?
The Normalized cell viability was 0.48.

What about the Normalized cell viability (Hep3B cells [3]; 120 hours after treatment) of the same compound?
The Normalized cell viability was 0.59.

Which “responders with responses lasting 6 months or longer” value (HCC [5]) does the source give for Nivolumab: PD-1 inhibitor, Human IgG here?
The value was 91%.

What about the “responders with responses lasting 12 months or longer” value (HCC [5]) of the same compound?
The value was 55%.

What about the overall response rate (HCC [5]; HCC patients, 95% CI: 9.2, 20.8) of the same compound?
The overall response rate was 14.3%.

What about the complete responses (HCC [5]; HCC patients) of the same compound?
Its complete responses is 3.

What about the partial responses (HCC [5]; HCC patients) of the same compound?
Its partial responses is 19.

— patent publication US20210254069A1, “COMBINATION THERAPIES COMPRISING C/EBP ALPHA SARNA” (MiNA THERAPEUTICS LIMITED, priority 2018, published 2021)
